Results reported in article PMC12303080, “Diverse actions of 15 structurally unrelated mitochondrial uncouplers in cells and mice” (Molecular Metabolism, 2025).
Like-named read-outs stand apart in the source and are kept apart here.

What was measured:
CHO–K1 cells [1] = assay: Seahorse XF-96 OCR dose response of 15 uncouplers (Figure 2); assay type: cell-based, Cricetulus griseus; conditions: for EC50: mean OCR (% basal) over first 24 min post injection, ± standard error, four-parameter fit
Procedure: Stock solutions of the uncouplers and/or Rotenone/Antimycin A were diluted in Seahorse media to give the final concentration indicated in Figure 1, Figure 2, Figure 3 with 0.4% (v/v) DMSO in wells.

CHO–K1 cells [2] = assay: OCR in the absence or presence of oligomycin (Supplementary Fig. 6); assay type: cell-based, Cricetulus griseus; conditions: 1 μM oligomycin, uncoupler at lowest concentration yielding MaxOCR
Procedure: ATP synthase is the major conduit through which protons re-enter the mitochondrial matrix. Thus, we sought to investigate whether the selected uncouplers could stimulate oxygen consumption in the presence of the ATP synthase inhibitor oligomycin.
Supplementary Figure 6. […] At ~24 minutes, 1 μM of oligomycin or vehicle was injected, followed by the injection of the indicated uncoupler or vehicle at ~44 minutes, and 0.5 μM Rotenone / Antimycin A at ~88 minutes.

[3] = tested on: Arabidopsis thaliana cells; set-up: method as in PMID 22006339; conditions: cited from earlier work
[4] = Drug exposure / pharmacokinetics after oral gavage; conditions: male, C57BL/6J, mouse, plasma, 10 mg/kg
Procedure: Standards were prepared by spiking known concentrations (0.1, 1, 10, 100 and 1000 ng) of the uncoupler into whole blood prior to extraction. Plasma was obtained by centrifugation at 2000×g for 10 min at 4 °C. Seven microlitres (7 μL) of plasma was precipitated in 100 μL of 90% (v/v) acetonitrile and 10% (v/v) methanol. The resulting solution was vortexed for 5 s and then centrifuged at 21,130×g for 10 min at 4 °C. The supernatant was collected in auto-sampler vials for mass spectrometry.
Plasma concentration of mitochondrial uncouplers at indicated timepoints was determined by LC-MS/MS. Error bars show SEM, n = 3 per mitochondrial uncoupler.

db/db mice = assay: Four-week treatment by admixture in chow, metabolic phenotyping; conditions: 4 weeks
Procedure: Body weight and glucose tolerance of male db/+ and db/db mice was assessed at 8–9 weeks of age to obtain baseline measurements. Db/+ were used as lean metabolically healthy controls and given ad libitum access to chow diet. Db/db mice were stratified into 12 groups using R (V4.4.0).
Mice were on treatment for a period of four weeks, during which body weight and food intake were measured daily. […] To counter this, food traps were placed beneath hoppers and leftover food in both the traps and hoppers was weighed daily. HbA1c was measured weekly. At the end of the treatment period, a glucose tolerance test was conducted, with fed and fasted bloods collected. At termination, blood was collected via cardiac puncture under isoflurane anaesthesia. Mice were euthanised by cervical dislocation and harvested tissues were flash-frozen in liquid nitrogen and stored at −80 °C.
Mice were fasted for 6 h and then received intraperitoneal injections of 20% (w/v) dextrose at a dose of 1 g/kg lean body mass. Blood glucose (BG) was measured at the time of fasting (random-fed BG) and then again prior to the commencement of the GTT following the 6-hour daytime fast (fasted BG). […] The rate of glucose clearance was measured using the trapezoidal method for calculation of area under the curve.
HbA1c was measured once weekly using an A1cNow + Portable HbA1c Test Kit. […] HbA1c was measured in the random-fed state.
A glucose tolerance test was conducted at the end of the treatment period, with random fed and 6-hour fasted bloods collected. Blood was collected in heparin tubes and kept on ice prior to centrifugation at 2000×g for 10 min at 4 °C to extract plasma. Plasma insulin concentration was determined using the Crystal Chem Ultra-Sensitive Mouse Insulin ELISA kit, according to manufacturers' instructions for the high range (1–64 ng/mL) assay.

humans = conditions: cited from earlier work
Swiss mice = tested on: Swiss mice; set-up: method as in PMID 18505478; conditions: ∼30–105 μg/kg/day in drinking water; cited from earlier work

Structure (SMILES): O=[N+]([O-])c1ccc(NS(=O)(=O)c2ccc(Br)s2)cc1 [ES9, Endosidin 9]
- EC50 (CHO–K1 cells [1]; CHO–K1, read-out: EC50 (increase of OCR)): 1.6 µM
- Concentration range with sustained enhanced OCR (OCR ≥ 150% basal) (CHO–K1 cells [1]; CHO–K1, tested 0.32–200 μM): ≤ 100 µM
- EC50 (CHO–K1 cells [1]; Cricetulus griseus, CHO-K1, 0.4 h, CHO–K1, read-out: EC50 (increase of OCR)): 1.61 ± 0.41 µM
- Effect of oligomycin on uncoupler-stimulated OCR (CHO–K1 cells [2]): largely unaffected by the presence of oligomycin
- Concentration increasing respiration (as low as) [3]: Endosidin 9 (ES9) • ES9 has not been tested in mouse models of metabolic disease. It was identified in a chemical library screen for inhibitors of endomembrane trafficking and increased respiration in Arabidopsis thaliana cells at concentrations as low as 1 μM [71].
- Cmax [4]: 72.3 µM
- Gastrocnemius weight vs control (db/db mice; 0.015% in chow): significantly larger gastrocnemius
- Gastrocnemius weight vs control (db/db mice; 0.03% in chow): significantly larger gastrocnemius
- Increase of total liver cholesterol content vs db/db control (db/db mice; 0.03% in chow): ~1.7 fold
- Post-treatment GTT AUC lower than control group (db/db mice; 0.03% in chow): ~35%
- Body weight / weight gain vs db/db controls (db/db mice; 0.15% BAM15, 0.02% OPC-163493, 0.015% and 0.03% ES9, NTZ and NEN both doses): non-significant trend for increased weight gain
- GTT ΔAUC (post minus pre-treatment) (db/db mice; 0.15% and 0.2% BAM15, printed 0.3% ES9): statistically significant protection from worsening glucose tolerance
- Blood glucose, HbA1c, glucose tolerance vs control (db/db mice; NEN both doses, 0.01% OPC, 0.015% ES9, 0.2% NTZ): did not have significantly lower random-fed or 6-hour fasted blood glucose
- HbA1c (db/db mice; both doses of BAM15, printed 0.3% ES9, 0.4% NTZ): lowered HbA1c levels
- Fasting and random fed blood glucose (db/db mice; either dose of BAM15, high dose ES9, high dose NTZ): partial efficacy
- Increase of liver triglyceride concentration vs db/db controls (db/db mice; high dose ES9 (0.03%)): ~2.7 fold
- Increase of total liver triglyceride content vs db/db controls (db/db mice; high dose ES9 (0.03%)): ~3.4 fold
- Liver triglyceride concentration vs db/db controls (db/db mice; lower dose ES9 (0.015%)): significantly increased liver triglyceride concentration
- Increase in liver wet weight vs db/db control (db/db mice; printed 0.3% ES9 in chow): ~25%

Structure (SMILES): O=[N+]([O-])c1ccc(O)c([N+](=O)[O-])c1 [DNP, 2,4-Dinitrophenol]
- MaxOCR lower than that seen with BAM15 (CHO–K1 cells [1]; CHO–K1, Figure 2): ~27%
- EC50 (CHO–K1 cells [1]; Cricetulus griseus, CHO-K1, 0.4 h, read-out: EC50 (increase of OCR), CHO–K1): 17 ± 1.18 µM
- EC50 (CHO–K1 cells [1]; read-out: EC50 (increase of OCR), CHO–K1): 17 µM
- Effect of oligomycin on uncoupler-stimulated OCR (CHO–K1 cells [2]): largely unaffected by the presence of oligomycin
- Body weight lost per week (humans): 1.5 kg
- Weight loss (humans): ≤ 1.5 kg/week
- Increase in metabolic rate (humans; for every 100 mg ingested): 11%
- Lifespan extension (Swiss mice): 7%
